What all share (assay type): cell-based
In test [1] the target is T1, AR-TIF2 PPI (Homo sapiens, UniProt P10275).
T1 construct: AR-LBD residues (662-919) were incorporated into one biosensor; expressed in transfected cells; host or cells: U-2 OS osteosarcoma cells, coinfected with recombinant adenoviruses
T1 sequence (P10275 662-919): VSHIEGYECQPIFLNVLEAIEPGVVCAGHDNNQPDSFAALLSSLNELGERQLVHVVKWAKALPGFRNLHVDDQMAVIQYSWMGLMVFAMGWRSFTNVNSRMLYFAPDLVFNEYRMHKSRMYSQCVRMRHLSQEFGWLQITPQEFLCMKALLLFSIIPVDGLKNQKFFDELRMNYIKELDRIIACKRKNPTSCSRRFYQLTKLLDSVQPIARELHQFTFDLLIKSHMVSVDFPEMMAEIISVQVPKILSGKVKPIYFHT
Nature of the test: AR-TIF2 PPIB HCS assay: disruption of preformed DHT-induced AR-TIF2 PPI complexes (DHT then compound). Particulars: U-2 OS cells. The method, then:
(§1) AR-TIF2 Protein-Protein Interaction Biosensor Assay: The AR-TIF2 PPIB HCS assay was performed in U-2 OS osteosarcoma cells as described previously (Fancher et al., Assay Drug Dev Technol. 2016, 14:453-477; Fancher et al., Assay Drug Dev Technol. 2018, 16:297-319; Hua et al., Assay Drug Dev Technol. 2014, 12:395-418; Hua et al., Methods Mol Biol. 2018, 1683:211-227). Briefly, U-2 OS cells were coinfected with recombinant adenovirus biosensor expression constructs and seeded at 2,500 cells per well in 384-well collagen-coated microplates (Greiner Bio-One #781956) and plates were incubated overnight at 37° C. in 5% CO2 and 95% humidity. […] After the appropriate time, assay plates were fixed by transfer of 50 μL of pre-warmed (37° C.) 7.4% formaldehyde and 2 μg/mL Hoechst 33342 in PBS and incubation at room temperature for 30 minutes. Liquid was aspirated, plates were washed twice with 85 μL PBS, leaving the final wash in the plate. Plates were sealed with adhesive aluminum plate seals, and fluorescent images of three fields of view were acquired in the DAPI (Hoechst stained nuclei), FITC (TIF2-GFP) and Texas Red (AR-RFP) channels on an ImageXpress® Micro (IXM) automated HCS platform (Molecular Devices LLC, Sunnyvale, CA) using a 10× Plan Fluor 0.3 NA objective. Images were analyzed using the Translocation Enhanced (TE) image analysis module of the MetaXpress® software (Molecular Devices, LLC, San Jose, CA) as described previously (Fancher et al., Assay Drug Dev Technol. 2016, 14:453-477; Fancher et al., Assay Drug Dev Technol. 2018, 16:297-319; Hua et al., Assay Drug Dev Technol. 2014, 12:395-418; Hua et al., Methods Mol Biol. 2018, 1683:211-227).
(§2) For the 96-well AR-LBD H^3-DHT radioligand binding assay, eight minimum and maximum plate control wells were utilized to normalize the data. For the PC cell line growth inhibition assays the DMSO control data from the TO and T72 assay plates was used to assess the dynamic range of the T0 to T72 cell growth, and to calculate S:B ratios and Z′-factor coefficient statistics for the assay signal window (T0 to T72). To normalize the 72 h compound exposure PC growth inhibition data, the signals from the compound treated wells were processed and expressed as % of the T72 DMSO plate controls. IC50 and GI50 values for each of the bioassays were calculated using GraphPad Prism 9 software to plot and fit data to curves using the Sigmoidal dose response variable slope equation Y=Bottom+[Top-Bottom]/[1+10^(Log EC50−X)*HillSlope].
(§3) A positional AR-TFI2 protein-protein interaction biosensor (PPIB) assay was used to identify small molecules that inhibited DHT-induced formation of AR-TIF2 PPIs and/or disrupted pre-existing AR-TIF2 PPIs (Fancher et al., Assay Drug Dev Technol 2016, 14(8):453-477; Fancher et al., Assay Drug Dev Technol 2018, 16(6):297-319; Hua et al., Assay Drug Dev Technol 2014, 12:395-418; Hua et al., Methods Mol biol 2018, 1683:211-227). AR-LBD residues (662-919) were incorporated into one biosensor and TIF2 residues (725-840) containing the 3rd NR box LXXLL motif into the second interacting biosensor partner (Id.) The AR-TIF2 PPIB recapitulates the orthosteric ligand (OSL)-induced translocation of AR from the cytoplasm into the nucleus where PPIs with TIF2 result in colocalization of both biosensors in the nucleolus. Using three libraries, a total of 143,535 compounds were screened—a 10,000-compound ChemDiv PPI focused diversity library, a 50,000-compound ChemBridge diversity library, and a 83,535-compound library provided by the NCI's Chemical Biology Consortium. The 10K and 50K diversity libraries were subsets of 142K and 810K parent libraries, enabling screening of a representative subset of >1×10^6 compounds. AR-TIF2 PPI inhibitor and disruptor actives were confirmed in the HCS assay and counter screens designed to identify and exclude nuisance/interference or non-selective compounds (Fancher et al., Assay Drug Dev Technol 2018, 16(6):297-319). […]

The nature of test [2]: GI50 given in Tables 4-6 (test not described). Particulars: cell line not stated.
The target in test [3] is T1, AR-TIF2 PPI. Nature of the test: AR-TIF2 PPIB HCS assay: inhibition of DHT-induced AR-TIF2 PPI formation (compound then DHT). Particulars: U-2 OS cells. The method, then: as §1, §2, §3
Test [4] deals with T1, AR-TIF2 PPI. Description: AR-TIF2 PPIB assay, both formats stated jointly. As to conditions: both assay formats; read-out: AR-TIF2 PPI inhibitor/disruptor IC50s. The method, then: as §1
A positional AR-TFI2 protein-protein interaction biosensor (PPIB) assay was used to identify small molecules that inhibited DHT-induced formation of AR-TIF2 PPIs and/or disrupted pre-existing AR-TIF2 PPIs (Fancher et al., Assay Drug Dev Technol 2016, 14(8):453-477; Fancher et al., Assay Drug Dev Technol 2018, 16(6):297-319; Hua et al., Assay Drug Dev Technol 2014, 12:395-418; Hua et al., Methods Mol biol 2018, 1683:211-227). AR-LBD residues (662-919) were incorporated into one biosensor and TIF2 residues (725-840) containing the 3rd NR box LXXLL motif into the second interacting biosensor partner (Id.) The AR-TIF2 PPIB recapitulates the orthosteric ligand (OSL)-induced translocation of AR from the cytoplasm into the nucleus where PPIs with TIF2 result in colocalization of both biosensors in the nucleolus. Using three libraries, a total of 143,535 compounds were screened—a 10,000-compound ChemDiv PPI focused diversity library, a 50,000-compound ChemBridge diversity library, and a 83,535-compound library provided by the NCI's Chemical Biology Consortium. The 10K and 50K diversity libraries were subsets of 142K and 810K parent libraries, enabling screening of a representative subset of >1×10^6 compounds. AR-TIF2 PPI inhibitor and disruptor actives were confirmed in the HCS assay and counter screens designed to identify and exclude nuisance/interference or non-selective compounds (Fancher et al., Assay Drug Dev Technol 2018, 16(6):297-319). […] An AR-GFP subcellular localization assay was used to exclude compounds that reduced AR expression and/or restricted its localization to the cytoplasm (Fancher et al., Assay Drug Dev Technol 2018, 16(6):297-319; Johnston et al., Assay Drug Dev Technol 2016, 14:226-239; Masodi et al., Mol Cancer Ther 2017, 16(10):2120-2129). Hits were structurally classified, clustered, and medicinal chemistry computational filters (PAINS/REOS) were used to exclude nuisance compounds and evaluate drug-like properties (Baell, J Med Chem 2010, 53(7):2719-2740; Baell, ACS Chem. Biol. 2018, 13:36-44; Johnston, Curr Opin Chem Biol 2011, 15:174-182; Walters, Adv Drug Deliv Rev 2002, 54:255-271). […]

Test [5] has as its system PSA expression in C4-2 cells. Description: Western blot of PSA expression in C4-2 cells. Particulars: C4-2 cells, hits 20 μM (enzalutamide 25 μM) 3 h, ±10 nM DHT 24 h. The method, then: Cell lysate protein concentrations were determined in a bicinchoninic acid (BCA) assay. Equal amounts of cell protein were mixed with SDS-PAGE sample buffer and placed in a heat block at 100° C. for 5 min. The protein constituents of C4-2 cells were separated by SDS-PAGE on 10% separating gels, transferred to nitrocellulose membranes and western blots were probed overnight at 4° C. with a 1:1000 dilution of a rabbit anti-hPSA (Cell Signaling, Danvers, MA) primary antibody in Tris-buffered saline (TBS) Tween 20 (TBST) containing 5% non-fat milk. Membranes were washed 3× in TBST for 10 min, then incubated for 1 h at room temperature with a 1:10,000 dilution of the goat anti-rabbit IgG horse radish peroxidase (HRP) conjugated secondary antibody (Invitrogen, Carlsbad, CA) in TBST containing 5% non-fat milk. Western blots were then washed 3× in TBST and developed with Pierce enhanced chemiluminescence (ECL) western blotting substrate (Thermo Fisher Scientific, Waltham, MA). Images of western blot ECL bands were acquired on an iBright™ 1500 imaging system (Thermo Fisher Scientific, Waltham, MA) and quantified by iBright™ image analysis software.
For orientation: In western blotting, separated proteins are transferred to a membrane and probed.

Where [6] appears, read: DHT then compound, read-out: D then C IC50.
The mark [7] stands for this setting: 25 nM DHT, read-out: Inhibition DHT-induced AR-TIF2 PPI Formation IC50.
The mark [8] stands for this setting: compound then DHT, read-out: C then D IC50.
Where [9] appears, read: 25 nM DHT, read-out: Disruption of DHT-induced AR-TIF2 PPIs IC50.

The structures appear in SMILES notation. Where only a bound is given, the exact number is not on record here.

With `Cc1c(-c2ccccc2F)[nH]c2ccc(CNC(=O)C3=NNC(=O)CC3)cc12` [Compound S3-18], the IC50 in test [1] (setting [6]) was more than 100 µM. In test [2], this compound showed a GI50 of more than 100 µM.
As to `Cc1nsc(NC(=O)N2CCC(CN3CCCC3=O)CC2)n1` [Compound S2-9], the IC50 in test [3] (setting [7]), in test [3] (setting [8]), in test [4], in test [1] (setting [6]) and in test [1] (setting [9]) was more than 100 µM throughout. This compound also displayed a GI50 in test [2] of more than 100 µM.
As to `Cc1nsc(NC(=O)N2CCC(Cn3ccnc3C)CC2)n1` [Compound S2-8], the IC50 in test [3] (setting [7]), in test [3] (setting [8]), in test [4], in test [1] (setting [6]) and in test [1] (setting [9]) was more than 100 µM each time. Further, in test [2], the concentration for 50% growth inhibition (GI50) was more than 100 µM.
In the case of `CNC(=O)c1ccc(N2C(=S)N(c3ccc(C#N)c(C(F)(F)F)c3)C(=O)C2(C)C)cc1F` [enzalutamide, reference compound], in test [5], the “Endogenous and DHT-enhanced PSA expression” value is given as “inhibits DHT-enhanced PSA expression”.
On to `Cc1cccc2c(-c3ccc(Cl)c(C(N)=O)c3)c[nH]c12` [Compound S3-23], for which the IC50 in test [3] (setting [8]) is 1 µM; in test [1] (setting [6]), 46.2 µM. In test [2], this compound gave a concentration for 50% growth inhibition (GI50) of more than 100 µM.
For the compound `Cc1c(-c2ccccc2F)[nH]c2ccc(CNC(=O)c3cc[nH]n3)cc12` [Compound S3-16], the IC50 in test [3] (setting [8]) was 28.8 µM; in test [1] (setting [6]), more than 100 µM. Further, the GI50 in test [2] was more than 100 µM.
On to `Cc1nsc(NC(=O)N2CCC(F)CC2)n1` [Compound S2-10], for which the IC50 in test [3] (setting [7]), in test [3] (setting [8]), in test [4], in test [1] (setting [6]) and in test [1] (setting [9]) was more than 100 µM each time. For the same compound, the GI50 in test [2] was more than 100 µM.
Consider `CCc1[nH]c2c(CNC(=O)CCCc3cn[nH]c3)cc(F)cc2c1C` [Compound S3-25], for which the results for the IC50 in test [3] (setting [8]) and in test [1] (setting [6]) were 77.1 µM and more than 100 µM, respectively. The compound further gave a GI50 in test [2] of more than 100 µM.
With `CNC(=O)c1ccc(OC)c(-c2c[nH]c3ccc(C)cc23)c1` [Compound S3-22], the IC50 in test [3] (setting [8]) and in test [1] (setting [6]) was more than 100 µM each time. In addition, the GI50 in test [2] was more than 100 µM.
Take `Cc1cccc2c(-c3cccc(C(N)=O)n3)c[nH]c12` [Compound S3-24]: the IC50 in test [3] (setting [8]) is 4.1 µM; in test [1] (setting [6]), 26 µM. In test [2], this compound yielded a concentration for 50% growth inhibition (GI50) of more than 100 µM.
In the case of `Cc1c(-c2ccccc2F)[nH]c2ccc(CNC(=O)Cc3cccnc3)cc12` [Compound S3-19], the IC50 in test [3] (setting [8]) came out at 68.5 µM. This compound had a GI50 in test [2] of more than 100 µM.
As for `Cc1ccc2[nH]cc(-c3cc(CN)ccc3F)c2c1` [Compound S3-20], the IC50 in test [3] (setting [8]) amounted to 61.5 µM; in test [1] (setting [6]), 71.5 µM. In test [2], the GI50 was found to be 22.1 µM.

Broadly, the GI50 is the concentration giving 50% growth inhibition. Higher therefore signals lower sensitivity of the cells.
